The values that follow come from ChEMBL document CHEMBL4038345, “Design, Synthesis, and Biological Evaluation of Novel Selenium-Containing Isocombretastatins and Phenstatins as Antitumor Agents” (J Med Chem, 2017).

By IC50 is commonly meant the midpoint of a concentration-inhibition curve. A high value points to lower potency. Broadly, the half-life is how long it takes for the measured level to halve. Higher therefore signals slow loss.

The source made the active and inactive calls. The rule behind the calls is not given here.

Series [1] deals with A549. The series is described as follows: cells. Particulars: Homo sapiens, A549, 48 h.
The test system of series [2] is RKO. The series is described as follows: Antiproliferative activity against human RKO cells after 48 hrs by MTT assay. (In general: Tetrazolium dyes change colour on reduction, which living cells bring about.)
Series [3] relates to MDA-MB-231. The experiment in a line: Antiproliferative activity against human MDA-MB-231 cells after 48 hrs by MTT assay. Particulars: MDA-MB-231, 48 h.
In series [4] the test system is LoVo. The experiment in a line: Antiproliferative activity against human LoVo cells after 48 hrs by MTT assay.
Series [5] concerns HepG2. The series is described as follows: cells. Particulars: Homo sapiens, HepG2, 48 h.
For series [6], the system named is Liver. The series is described as follows: (§1) Metabolic stability in Sprague-Dawley rat liver microsomes assessed as compound remaining after 150 mins in presence of NADPH by UV-based HPLC-MS/MS analysis. The class given is ADME, microsome. Particulars: microsomes, 2.5 h.
Series [7] in a line: Metabolic stability in Sprague-Dawley rat liver microsomes assessed as compound remaining after 120 mins in presence of NADPH by UV-based HPLC-MS/MS analysis. The class given is ADME, microsome. Particulars: read-out: Stability. Background: Liver microsomes are a subcellular fraction often used to study metabolism.
Series [8] is described as follows: Metabolic stability in Sprague-Dawley rat liver microsomes assessed as compound remaining after 90 mins in presence of NADPH by UV-based HPLC-MS/MS analysis. Format: ADME, microsome. Particulars: read-out: Stability.
The nature of series [9]: Metabolic stability in Sprague-Dawley rat liver microsomes assessed as compound remaining after 60 mins in presence of NADPH by UV-based HPLC-MS/MS analysis. Format: ADME, microsome. Particulars: read-out: Stability.
Series [10] in a line: Metabolic stability in Sprague-Dawley rat liver microsomes assessed as compound remaining after 30 mins in presence of NADPH by UV-based HPLC-MS/MS analysis. Format: ADME, microsome. Particulars: read-out: Stability.
The test system of series [11] is A549. The experiment in a line: Antitumor activity against human A549 cells xenografted in BALB/c nude mouse assessed as tumor growth inhibition at 30 mg/kg, ip. The class given is functional. Particulars: read-out: TGI.
For series [12], the system named is Mus musculus. The experiment in a line: Toxicity in BALB/c nude mouse xenografted with human A549 cells assessed as change in body weight at 30 mg/kg, ip. The class given is organism-based. The settings on record: in vivo.
A short description of series [13]: Resistance index, ratio of IC50 for human HepG2/DOX cells to IC50 for human HepG2 cells. Format: functional.
Series [14] in a line: as §1. Format: ADME, microsome. Particulars: Sprague-Dawley, liver microsomes, read-out: Stability.
The subject of series [15] is HCT-116. The experiment in a line: cells. The settings on record: Homo sapiens, HCT-116, 48 h.
Series [16] deals with MCF7. The series is described as follows: cells. Particulars: Homo sapiens, MCF7, 48 h.
Series [17] relates to A549/CDDP. The experiment in a line: Antiproliferative activity against human A549/CDDP cells after 48 hrs by MTT assay. The class given is functional, cell-based.
Series [18] relates to HeLa. The experiment in a line: cells. The settings on record: Homo sapiens, 48 h.
The nature of series [19]: Inhibition of porcine brain tubulin polymerization measured every 60 seconds for 90 mins by DAPI staining-based fluorescence assay. Details: species or system Sus scrofa.
Series [20] deals with A549. The experiment in a line: Induction of microtubule disruption in human A549 cells at 5 to 10 nM after 8 to 24 hrs by Hoechst 33342 staining-based laser scanning confocal immunofluorescence microscopic analysis. Format: cell-based.
A short description of series [21]: Half life in Sprague-Dawley rat by UV-based HPLC-MS/MS analysis. Particulars: in vivo. Format: ADME.
Series [22] relates to A2780. The experiment in a line: cells. Particulars: Homo sapiens, A2780, 48 h.
Description: Antiproliferative activity against human A2780 cells after 48 hrs by MTT assay
For series [23], the system named is MGC-803. The series is described as follows: Antiproliferative activity against human MGC803 cells after 48 hrs by MTT assay. Particulars: MGC-803, 48 h.
The nature of series [24]: Resistance index, ratio of IC50 for human A549/CDDP cells to IC50 for human A549 cells. The class given is functional.
Series [25] can be described thus: Antiproliferative activity against human HepG2/DOX cells after 48 hrs by MTT assay. The class given is functional, cell-based.

For the compound `COc1ccc(C(=O)c2cc(OC)c(OC)c([Se]C)c2)cc1Br`, the IC50 in series [1] amounted to 368 nM; in series [2], 169 nM; in series [3], 435 nM; in [4], 1750 nM; in series [5] it was 655 nM.
Turning to `COc1ccc(C(=O)c2cc(OC)c(OC)c([Se]C)c2)cc1OC`, the IC50 in series [1] came to 285 nM; in series [2], 306 nM; in series [3] it was 1020 nM; in series [4] it was 766 nM; in series [5], 1090 nM.
Regarding `C=C(c1ccc(OC)c(F)c1)c1cc(OC)c(OC)c([Se]C)c1`, the IC50 in series [1] worked out at 29 nM; in series [2], 82 nM; in series [3], 24 nM; in [4], 33 nM; in series [5], 87 nM.
Regarding `COc1ccc(C(=O)c2cc(OC)c(OC)c([Se]C)c2)cc1O`, the IC50 turned out to be 55 nM in series [1]; 79 nM in [2]; 24 nM in series [3]; 53 nM in series [4]; 31 nM in [5].
Regarding `C=C(c1ccc(OC)c(C)c1)c1cc(OC)c(OC)c([Se]C)c1`, the IC50 in series [1] stood at 141 nM; in [2], 245 nM; in [3], 599 nM; in series [4], 496 nM; in [5], 607 nM.
In the case of `COc1ccc(/C=C\c2cc(OC)c(OC)c(OC)c2)cc1O` [COMBRETASTATIN A4], the Stability entry in [6] is “Nd(Unstable)”. The remaining at 2 h in series [7] was determined as 19.9%. Moreover, in series [8], the remaining at 1.5 h stood at 22.5%. Also, the remaining at 1 h in series [9] amounted to 26.4%. Besides, in series [10], the remaining at 0.5 h was determined as 67.2%.
In the case of `COc1ccc(C(=O)c2cc(OC)c(OC)c([Se]C)c2)cc1F`, the IC50 in series [1] amounted to 33 nM; in series [2] it was 59 nM; in [3], 34 nM; in series [4], 57 nM; in series [5], 47 nM.
In the case of `COc1ccc(/C=C\c2cc(OC)c(OC)c(OC)c2)cc1OP(=O)(O)O` [FOSBRETABULIN DISODIUM], the inhibition in vivo at 30 mg/kg in series [11] amounted to 47.6%.
Take `COc1ccc(C(=O)c2cc(OC)c(OC)c(OC)c2)cc1O` [PHENSTATIN]: the IC50 stood at 179 nM in series [1]; 72 nM in [2]; 62 nM in [3]; 122 nM in [4]; 108 nM in series [5].
For `COc1cc(C(=O)c2ccc([Se]C)cc2)cc(OC)c1OC`, the IC50 in series [1] came out at 69 nM; in series [2], 66 nM; in series [3], 65 nM; in series [4] it was 296 nM; in series [5], 77 nM.
With `COc1cc(C(=O)c2ccc(OC)c(OC)c2OC)cc([Se]C)c1OC`, the IC50 amounted to 2750 nM in series [1]; 874 nM in [2]; 4260 nM in series [3]; 523 nM in series [4]; 4340 nM in [5].
Turning to `COc1ccc(C(=O)c2cc(OC)c(OC)c([Se]C)c2)cc1`, the IC50 in [1] is 31 nM; in series [2], 47 nM; in series [3], 57 nM; in series [4] it was 145 nM; in series [5] it was 85 nM.
Take `C=C(c1ccc(OC)c(OP(=O)([O-])[O-])c1)c1cc(OC)c(OC)c([Se]C)c1.[Na+].[Na+]`: in series [12], the Activity entry is “Non-Toxic”. In addition, the inhibition in vivo at 30 mg/kg in [11] came out at 72.9%.
For the compound `C=C(c1ccc(OC)c(Br)c1)c1cc(OC)c(OC)c([Se]C)c1`, the half-inhibitory concentration (IC50) in [1] is 236 nM; in [2], 343 nM; in series [3], 667 nM; in series [4] it was 171 nM; in [5], 691 nM.
With `C=C(c1cc(OC)c(OC)c(OC)c1)c1cc(OC)c(OC)c([Se]C)c1`, the IC50 amounted to 473 nM in [1]; 3520 nM in series [2]; 3320 nM in [3]; 3140 nM in series [4]; 1350 nM in series [5].
The corresponding values for `C=C(c1ccc([Se]C)cc1)c1cc(OC)c(OC)c(OC)c1` are 97 nM, 216 nM, 178 nM, 279 nM and 386 nM.
The corresponding values for `C=C(c1cc(OC)c(OC)c([Se]C)c1)c1ccc(OC)c(OC)c1OC` are 1380 nM, 1040 nM, 3820 nM, 128 nM and 6300 nM.
For `C=C(c1ccc(OC)c(OC)c1)c1cc(OC)c(OC)c([Se]C)c1`, the IC50 in series [1] was 265 nM; in series [2], 216 nM; in series [3], 344 nM; in series [4], 299 nM; in series [5] it was 473 nM.
In the case of `C=C(c1ccc(OC)c(OP(=O)(O)O)c1)c1cc(OC)c(OC)c(OC)c1`, the inhibition in vivo at 30 mg/kg in [11] was determined as 52.2%.
In the case of `C=C(c1ccc(OC)cc1)c1cc(OC)c(OC)c([Se]C)c1`, the IC50 in series [1] was 72 nM; in [2] it was 107 nM; in series [3], 96 nM; in series [4], 91 nM; in [5] it was 126 nM.
Consider `COc1ccc(C(=O)c2cc(OC)c(OC)c([Se]C)c2)cc1C`, for which the IC50 in series [1] stood at 1730 nM; in series [2], 5280 nM; in [3] it was 997 nM; in [4] it was 3150 nM; in [5] it was 2300 nM.
As for `COc1cc(C(=O)c2cc(OC)c(OC)c([Se]C)c2)cc(OC)c1OC`, the IC50 worked out at 172 nM in series [1]; 235 nM in series [2]; 741 nM in series [3]; 921 nM in series [4]; 288 nM in series [5].
In the case of `C=C(c1ccc(OC)c(Cl)c1)c1cc(OC)c(OC)c([Se]C)c1`, the IC50 in [1] amounted to 196 nM; in [2] it was 451 nM; in [3] it was 83 nM; in series [4], 254 nM; in series [5], 298 nM.
Turning to `C=C(c1ccc(OC)c(O)c1)c1cc(OC)c(OC)c(OC)c1`, the “Ratio IC50” value in [13] stood at 2.1; in [24], 19.7. For the same compound, the remaining at 2.5 h in [14] is 34.3%. The IC50 stood at 3.5 nM in series [1]; 24 nM in [15]; 48 nM in [16]; 3.8 nM in series [2]; 8.5 nM in series [3]; 69.1 nM in [17]. Besides, the IC50 was determined as 3.7 nM in series [4]; 6 nM in series [18]; 2760 nM in [19]; 18.3 nM in series [5]; 26 nM in [22]; 19.8 nM in [23]. For the same compound, in [25], the midpoint of inhibition, the IC50, lay at 38.6 nM. The remaining at 2 h in series [7] is 49.8%. Also, the remaining at 1.5 h in [8] is 67.3%. In addition, the outcome in series [20] was Active. This compound also registered a half-life in series [21] of 1.7 h. Besides, the remaining at 1 h in series [9] was 77.1%. Also, in [10], the remaining at 0.5 h is 85.7%.
`COc1ccc(C(=O)c2cc(OC)c(OC)c([Se]C)c2)cc1Cl`: the IC50 in [1] was found to be 949 nM; in [2] it was 253 nM; in series [3], 865 nM; in series [4], 189 nM; in series [5] it was 1530 nM.
